Laboratory results taken from patent US10017507B2, “Diaza-benzofluoranthrene compounds” (HARBIN PHARMACEUTICAL GROUP CO., LTD. GENERAL …, priority 2015, dated 2018).

Target: T1, PDE1A (Homo sapiens, UniProt P54750)
T1 construct: purchased SignalChem
Assay: In vitro detection of phosphodiesterase (PDE): PDE1A enzyme activity by fluorescence polarization immunoassay
Type: biochemical
Details: human-derived enzyme, cAMP or cGMP substrate; read-out: IC50s for PDE1
Protocol: Test 1: In Vitro Detection of Phosphodiesterase (PDE)
the enzyme activity of PDE1A was determined by detecting the production of AMP/GMP by fluorescence polarization immunoassay, wherein AlexaFluor 633 labeled AMP/GMP was used to replace AMP/GMP to bind with the antibody.
Reaction buffer: 10 mM Tris-HCl, pH 7.5, 5 mM magnesium chloride, 0.01% Brij 35, 1 mM DTT and 1% DMSO;
Enzyme substrate: […] cAMP or cGMP (Ca^2+-calmodulin acts as a cofactor of PDE1A)
Detection reagent: Transcreener® AMP2/GMP2 antibody; AMP2/GMP2 AlexaFluor 633 tracer.
Experimental Procedure and Method:
1. Human-derived enzyme (commercially available from SignalChem) to be tested and substrate were diluted with freshly prepared reaction buffer;
2. The enzyme solution (with a concentration of 3 pM) was added to the holes of the microplates;
3. A series of solutions of the compounds in 100% DMSO (with the desired concentrations) were added to the holes containing the enzyme solution by Echo550, and then the microplates were incubated for 10 minutes at room temperature;
4. The substrate solution was added to the holes containing the enzyme and compounds to start the reaction;
5. The microplates were incubated for 1 hour under room temperature and vibration;
6. The detection mixture (tracer and antibody in stop buffer) was added to stop the enzyme reaction, and the microplates were incubated for 90 minutes under vibration;
7. The equipment EnVision (PerkinElmer), Cy5 FP Ex FP 620, Em S-pol 688/P-pol 688, FP mirror D658fp/D688 was used to detect the reaction mixture, and Ex/Em 620/688 was used to detect the fluorescence polarization.
In the Excel table, the enzyme activity corresponding to the FP signal was found on the AMP/GMP standard curve by reference to the DMSO negative control, and then was converted to product concentration (nM). GraphPad Prism was used to analyze and calculate the IC50 values.

Row | IC50 | Structure (SMILES)
1 | > 100000 nM | CCCC(O)(CCC)C1=C[C@]2(CC)CCCN3CCc4c(n1c1ccccc41)[C@@H]32 [Example 49, 4-((4^1S,13aS)-13a-ethyl-2,3,4^1,5,6,13a-hexahydro-1H-indolo[3,2,1-de]pyrido[3,2,1-ij][1,5]naphthyridin-12-yl) heptan-4-ol]
2 | 1000 to 20000 nM | CC[C@@]12C=C(c3ncc(C)o3)n3c4c(c5ccccc53)CCN(CCC1)[C@H]42 [Example 51, 2-((4^1S,13aS)-13a-ethyl-2,3,4^1,5,6,13a-hexahydro-1H-indolo[3,2,1-de]pyrido[3,2,1-ij][1,5]naphthyridin-12-yl)-5-methyloxazole]
3 | ≤ 1000 nM | CCc1oc(C2=C[C@]3(CC)CCCN4CCc5c(n2c2ccccc52)[C@@H]43)nc1C [Example 53, 5-ethyl-2-((4^1S,13aS)-13a-ethyl-2,3,4^1,5,6,13a-hexahydro-1H-indolo[3,2,1-de]pyrido[3,2,1-ij][1,5]naphthyridin-12-yl)-4-methyloxazole]
4 | 1000 to 20000 nM | CC[C@@]12C=C(c3nc(C)c(C(C)C)o3)n3c4c(c5ccccc53)CCN(CCC1)[C@H]42 [Example 54, 2-((4^1S,13aS)-13a-ethyl-2,3,4^1,5,6,13a-hexahydro-1H-indolo[3,2,1-de]pyrido[3,2,1-ij][1,5]naphthyridin-12-yl)-5-isopropyl-4-methyloxazole]
5 | ≤ 1000 nM | CCc1nc(C2=C[C@]3(CC)CCCN4CCc5c(n2c2ccccc52)[C@@H]43)oc1C [Example 56, 4-ethyl-2-((4^1S,13aS)-13a-ethyl-2,3,4^1,5,6,13a-hexahydro-1H-indolo[3,2,1-de]pyrido[3,2,1-ij][1,5]naphthyridin-12-yl)-5-methyloxazole]
6 | 1000 to 20000 nM | CC[C@@]12C=C(c3nc(C)c(C(C)(C)O)o3)n3c4c(c5ccccc53)CCN(CCC1)[C@H]42 [Example 60, 2-(2-((4^1S,13aS)-13a-ethyl-2,3,4^1,5,6,13a-hexahydro-1H-indolo[3,2,1-de]pyrido[3,2,1-ij][1,5]naphthyridin-12-yl)-4-methyloxazol-5-yl)propan-2-ol]
7 | 1000 to 20000 nM | CC[C@@]12C=C(c3nc(C)c(C(N)=O)o3)n3c4c(c5ccccc53)CCN(CCC1)[C@H]42 [Example 62, 2-((4^1S,13aS)-13a-ethyl-2,3,4^1,5,6,13a-hexahydro-1H-indolo[3,2,1-de]pyrido[3,2,1-ij][1,5]naphthyridin-12-yl)-4-methyloxazole-5-carboxamide]
8 | ≤ 1000 nM | CC[C@@]12C=C(c3nc(C)c(C#N)o3)n3c4c(c5ccccc53)CCN(CCC1)[C@H]42 [Example 63, 2-((4^1S,13aS)-13a-ethyl-2,3,4^1,5,6,13a-hexahydro-1H-indolo[3,2,1-de]pyrido[3,2,1-ij][1,5]naphthyridin-12-yl)-4-methyloxazole-5-carbonitrile]
9 | ≤ 1000 nM | CC[C@@]12C=C(c3nc(C)c(C(=O)N(C)C)o3)n3c4c(c5ccccc53)CCN(CCC1)[C@H]42 [Example 65, 2-((4^1S,13aS)-13a-ethyl-2,3,4^1,5,6,13a-hexahydro-1H-indolo[3,2,1-de]pyrido[3,2,1-ij][1,5]naphthyridin-12-yl)-N,N,4-trimethyloxazole-5-carboxamide]
10 | ≤ 1000 nM | CC[C@@]12C=C(c3nc4c(o3)CCOC4)n3c4c(c5ccccc53)CCN(CCC1)[C@H]42 [Example 66, 2-((4^1S,13aS)-13a-ethyl-2,3,4^1,5,6,13a-hexahydro-1H-indolo[3,2,1-de]pyrido[3,2,1-ij][1,5]naphthyridin-12-yl)-6,7-dihydro-4H-pyrano[3,4-d]oxazole]
11 | ≤ 1000 nM | CC[C@@]12C=C(c3nc(C)c(N4CCOCC4)o3)n3c4c(c5ccccc53)CCN(CCC1)[C@H]42 [Example 67, 4-(2-((4^1S,13aS)-13a-ethyl-2,3,4^1,5,6,13a-hexahydro-1H-indolo[3,2,1-de]pyrido[3,2,1-ij][1,5]naphthyridin-12-yl)-4-methyloxazol-5-yl)morpholine]

The next lines start with the molecule.

Row | Structure (SMILES) | IC50
12 | CC[C@@]12C=C(c3cn4ccc(C(F)(F)F)cc4n3)n3c4c(c5ccccc53)CCN(CCC1)[C@H]42 [Example 44, (4^1S,13aS)-13a-ethyl-12(7-(trifluoromethyl)imidazo[1,2-a]pyridin-2-yl)-2,3,4^1,5,6,13a-hexahydro-1H-indolo[3,2,1-de]pyrido[3,2,1-ij][1,5]naphthyridine] | 20000 to 100000 nM
13 | CC[C@@]12C=C(c3ccno3)n3c4c(c5ccccc53)CCN(CCC1)[C@H]42 [Example 45, 5-((4^1S,13aS)-13a-ethyl-2,3,4^1,5,6,13a-hexahydro-1H-indolo[3,2,1-de]pyrido[3,2,1-ij][1,5]naphthyridin-12-yl)isoxazole] | 20000 to 100000 nM
14 | CC[C@@]12C=C(c3cc(C)no3)n3c4c(c5ccccc53)CCN(CCC1)[C@H]42 [Example 47, 5-((4^1S,13aS)-13a-ethyl-2,3,4^1,5,6,13a-hexahydro-1H-indolo[3,2,1-de]pyrido[3,2,1-ij][1,5]naphthyridin-12-yl)-3-methylisoxazole] | 1000 to 20000 nM
15 | CCC/C(=N\OC)C1=C[C@]2(CC)CCCN3CCc4c(n1c1ccccc41)[C@@H]32 [Example 48, 1-((4^1S,13aS)-13a-ethyl-2,3,4^1,5,6,13a-hexahydro-1H-indolo[3,2,1-de]pyrido[3,2,1-ij][1,5]naphthyridin-12-yl)butan-1-one-O-methyl oxime] | 1000 to 20000 nM
16 | CC[C@@]12C=C(c3nc(C)co3)n3c4c(c5ccccc53)CCN(CCC1)[C@H]42 [Example 50, 2-((4^1S,13aS)-13a-ethyl-2,3,4^1,5,6,13a-hexahydro-1H-indolo[3,2,1-de]pyrido[3,2,1-ij][1,5]naphthyridin-12-yl)-4-methyloxazole] | 1000 to 20000 nM
17 | CC[C@@]12C=C(c3nc(C)c(C)o3)n3c4c(c5ccccc53)CCN(CCC1)[C@H]42 [Example 52, 2-((4^1S,13aS)-13a-ethyl-2,3,4^1,5,6,13a-hexahydro-1H-indolo[3,2,1-de]pyrido[3,2,1-ij][1,5]naphthyridin-12-yl)-4,5-dimethyloxazole] | ≤ 1000 nM
18 | CC[C@@]12C=C(c3nc4c(o3)CCCC4)n3c4c(c5ccccc53)CCN(CCC1)[C@H]42 [Example 55, 2-((4^1S,13aS)-13a-ethyl-2,3,4^1,5,6,13a-hexahydro-1H-indolo[3,2,1-de]pyrido[3,2,1-ij][1,5]naphthyridin-12-yl)-4,5,6,7-tetrahydrobenzo[d]oxazole] | ≤ 1000 nM
19 | CC[C@@]12C=C(c3nc(C(C)C)c(C)o3)n3c4c(c5ccccc53)CCN(CCC1)[C@H]42 [Example 57, 2-((4^1S,13aS)-13a-ethyl-2,3,4^1,5,6,13a-hexahydro-1H-indolo[3,2,1-de]pyrido[3,2,1-ij][1,5]naphthyridin-12-yl)-4-isopropyl-5-methyloxazole] | ≤ 1000 nM
20 | CC[C@@]12C=C(c3nc(C)c(C4CC4)o3)n3c4c(c5ccccc53)CCN(CCC1)[C@H]42 [Example 58, 5-cyclopropyl-2-((4^1S,13aS)-13a-ethyl-2,3,4^1,5,6,13a-hexahydro-1H-indolo[3,2,1-de]pyrido[3,2,1-ij][1,5]naphthyridin-12-yl)-4-methyloxazole] | ≤ 1000 nM
21 | CC[C@@]12C=C(c3nc(C)c(C(=O)OC)o3)n3c4c(c5ccccc53)CCN(CCC1)[C@H]42 [Example 59, Methyl-2-((4^1S,13aS)-13a-ethyl-2,3,4^1,5,6,13a-hexahydro-1H-indolo[3,2,1-de]pyrido[3,2,1-ij][1,5]naphthyridin-12-yl)-4-methyloxazole-5-carbonate] | ≤ 1000 nM
22 | CC[C@@]12C=C(c3nc(C)c(CO)o3)n3c4c(c5ccccc53)CCN(CCC1)[C@H]42 [Example 61, (2-((4^1S,13aS)-13a-ethyl-2,3,4^1,5,6,13a-hexahydro-1H-indolo[3,2,1-de]pyrido[3,2,1-ij][1,5]naphthyridin-12-yl)-4-methyloxazol-5-yl)methanol] | ≤ 1000 nM
23 | CC[C@@]12C=C(c3nc(C)c(C(=O)NC)o3)n3c4c(c5ccccc53)CCN(CCC1)[C@H]42 [Example 64, 2-((4^1S,13aS)-13a-ethyl-2,3,4^1,5,6,13a-hexahydro-1H-indolo[3,2,1-de]pyrido[3,2,1-ij][1,5]naphthyridin-12-yl)-N,4-dimethyloxazole-5-carboxamide] | ≤ 1000 nM
24 | CC[C@@]12C=C(c3nc(C)c(C)o3)n3c4c(c5ccc(S(=O)(=O)NC)cc53)CCN(CCC1)[C@H]42 [Example 68, (4^1S,13aS)-12-(4,5-dimethyloxazol-2-yl)-13a-ethyl-N-methyl-2,3,4^1,5,6,13a-hexahydro-1H-indolo[3,2,1-de]pyrido[3,2,1-ij][1,5]naphthyridin-9-sulfonamide] | ≤ 1000 nM
25 | CC[C@@]12C=C(c3nc(C)c(C)o3)n3c4c(c5ccc(S(=O)(=O)N(C)C)cc53)CCN(CCC1)[C@H]42 [Example 69, (4^1S,13aS)-12-(4,5-dimethyloxazol-2-yl)-13a-ethyl-N,N-dimethyl-2,3,4^1,5,6,13a-hexahydro-1H-indolo[3,2,1-de]pyrido[3,2,1-ij][1,5]naphthyridin-9-sulfonamide] | 1000 to 20000 nM
